The subject of data set [1] is B. cereus. The data set can be described thus: Inhibition of endospore germination (outgrowth), plating on nutrient agar. It counts as cell-based, Bacillus cereus. To be noted: for Average Inhibition of Spore Germination: Table 2, B. cereus, 2 hours treatment; for Average Percent Inhibition of B. cereus: Table 3 (FIG. 2). The procedure:
(§1) Heated samples were treated with 1, 5, 10% of GTP (mixed green tea polyphenols), LTP (lipophilic green tea polyphenols), EGCg (epigallocatechingallate), or EGCg-Stearate for 2 hours, diluted and plated onto nutrient agar plates, and incubated at 37° C. for 24 hours. Non-starved cells and starved cells without treatment were used as controls.
(§2) Germination, specifically outgrowth, of purified endospores in Bacillus cereus, B. megaterium, and B. subtilis was studied by treating the bacteria with four different green tea polyphenols: GTP (mixed green tea polyphenols), LTP (lipophilic green tea polyphenols), EGCg (epigallocatechingallate), and EGCg-Stearate.

Data set [2] relates to B. megaterium. The data set is described as above. It counts as cell-based, Bacillus megaterium. As to conditions: for Average Inhibition of Spore Germination: Table 2, B. megaterium, 2 hours treatment; for Average Percent Inhibition of B. megaterium: Table 4 (FIG. 3). The procedure: as §1, §2
Data set [3] deals with B. subtilis. The description is as above. It counts as cell-based, Bacillus subtilis. As to conditions: for Average Inhibition of Spore Germination: Table 2, B. subtilis, 2 hours treatment; for Average Percent Inhibition of B. subtilis: Table 5 (FIG. 4). The procedure:
as §1, §2

Data set [4] has as its system Bacillus megaterium spores. Description: Viability of heat-treated spores after treatment, colony count on nutrient agar. To be noted: 10%. It counts as cell-based. As for the experimental part: Bacillus megaterium spores were induced through process of starvation for 2 hours in sterile deionized water and then heated at 90° C. for 20 minutes. The heated samples were treated with 10% of EGCG or EGCG-ester for 1 hour or 24 hours respectively and then plated onto nutrient agar plates with a countable range of 150 to 300 CPU (colony counting unit). The non-starved cells and starved cells without treatment were used as controls.

Turning to `CCCCCCCCCCCCCCCCCC(=O)Oc1c(O)cc([C@H]2Oc3cc(O)cc(O)c3C[C@H]2OC(=O)c2cc(O)c(O)c(O)c2)cc1O` [EGCg-Stearate, (−)-epigallocatechin-3-gallate (EGCG) esterified at the 4′ position with stearic acid], the “Average Inhibition of Spore Germination” value in data set [1] (1%) amounted to 72.6%; in data set [1] (5%), 56.6%; in data set [1] (10%) it was 90.5%; in data set [2] (1%), 70.5%; in data set [2] (5%), 75.0%; in data set [2] (10%), 79.0%. Further, the “Average Inhibition of Spore Germination” value is listed as 55.0% in data set [3] (1%), 58.1% in data set [3] (5%) and 69.2% in data set [3] (10%). In addition, the “Average Percent Inhibition of B. cereus” value stood at 88.81% in data set [1] (concentration 1%), 98.49% in data set [1] (concentration 5%) and 98% in data set [1] (concentration 10%). The “Average Percent Inhibition of B. megaterium” value in data set [2] (concentration 1%) worked out at 99.84%; in data set [2] (concentration 5%) it was 91.91%; in data set [2] (concentration 10%), 97.14%. Further, the “Average Percent Inhibition of B. subtilis” value in data set [3] (concentration 1%) turned out to be 99.93%; in data set [3] (concentration 5%), 98.77%.
`O=C(O[C@@H]1Cc2c(O)cc(O)cc2O[C@@H]1c1cc(O)c(O)c(O)c1)c1cc(O)c(O)c(O)c1` [EGCg, (−)-epigallocatechin-3-gallate]: the “Average Inhibition of Spore Germination” value in data set [1] (1%) stood at 16.9%; in data set [1] (5%) it was 25.7%; in data set [1] (10%) it was 33.0%; in data set [2] (10%), 100.0%; in data set [3] (1%), 52.9%; in data set [3] (5%) it was 45.1%. For the same compound, in data set [3] (10%), the “Average Inhibition of Spore Germination” value turned out to be 66.1%. For the same compound, the “Average Percent Inhibition of B. cereus” value in data set [1] (concentration 1%) worked out at 94.18%; in data set [1] (concentration 5%) it was 91.68%; in data set [1] (concentration 10%), 99%. The “Average Percent Inhibition of B. megaterium” value in data set [2] (concentration 1%) came to 96.39%; in data set [2] (concentration 5%), 99.48%; in data set [2] (concentration 10%), 99.85%. Besides, the “Average Percent Inhibition of B. subtilis” value was 99.95% in data set [3] (concentration 1%) and 100% in data set [3] (concentration 5%). Also, the “Inhibition of viability of Bacillus megaterium spores compared to the control” value in data set [4] (after 24 hours-incubation at 37° C.) came to 90%. Moreover, in data set [4] (both 1 hour and 24 hours treated samples), the “Viable cells or colonies of Bacillus megaterium detected” value is given as “no viable cells or colonies”.

(Values after patent US20150025132A1, “COMPOSITIONS AND METHODS FOR INHIBITING ENDOSPORES USING GREEN TEA POLYPHENOLS” (priority 2013, published 2015).)
